Measured values: PubChem BioAssay (NCI)
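Growth conditions: 96-well plates. Treatment: test compound, 48 hours, 5 concentrations. Analysis: linear interpolation between bracketing concentrations; unreached endpoints set to highest concentration. TGI: total growth inhibition.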 Where a SMILES comes first, the peptide text is derived from it. The star is where a group is joined. Cbz = O=C(OCc1ccccc1)*

What was measured:
Experiment in all cases: NCI-60 cell line screen, 48 h
[1] = system: A549 NSCLC
[2] = system: CAKI-1 renal
[3] = system: HCT-116 colon
[4] = system: HCT-15 colon
[5] = system: HS 578T breast
[6] = system: KM12 colon
[7] = system: MALME-3M melanoma
[8] = system: OVCAR-3 ovarian
[9] = system: OVCAR-4 ovarian
[10] = system: RPMI-8226 leukemia
[11] = system: RXF 393 renal
[12] = system: SF-268 CNS
[13] = system: SF-295 CNS
[14] = system: SF-539 CNS
[15] = system: SK-OV-3 ovarian
[16] = system: SN12C renal
[17] = system: SR leukemia
[18] = system: TK-10 renal
[19] = system: U251 CNS
[20] = system: UO-31 renal

Compound | TGI [1] | TGI [2] | TGI [3] | TGI [4] | TGI [5] | TGI [6] | TGI [7] | TGI [8] | TGI [9] | TGI [10] | TGI [11] | TGI [12] | TGI [13] | TGI [14] | TGI [15] | TGI [16] | TGI [17] | TGI [18] | TGI [19] | TGI [20]
CC(C)=CC[C@]12CCN[C@H]1N(S(=O)(=O)c1ccccc1)c1ccccc12 | 59.1 µM | 69.4 µM | 27.9 µM | 32.8 µM | 44.5 µM | 76.3 µM | 32.7 µM | 30.6 µM | 42 µM | 45.9 µM | 27.6 µM | 33.3 µM | 34.5 µM | 36.9 µM | 38.9 µM | 26.4 µM | 51 µM | > 100 µM | 30.7 µM | 33.3 µM
CC1OC(OC2C(O)COC(OC3C(C)OC(OC4C(OC(=O)[C@]56CCC(C)(C)C[C@@H]5C5=CCC7[C@@]8(C)C[C@H](O)[C@H](OC9OC(CO)C(O)C(O)C9O)[C@@](C)(CO)[C@@H]8CC[C@@]7(C)[C@]5(C)CC6)OCC(O)C4O)C(O)C3OC3OCC(O)(CO)C3O)C2O)C(O)C(O)C1O (stereo not given in full) | 18 µM | 13.8 µM | 30.6 µM | 38.7 µM | 35.8 µM | 52.4 µM | 33.8 µM | 40.8 µM | 37.2 µM | > 100 µM | 34.1 µM | 28.4 µM | 32.2 µM | 44.8 µM | 34.8 µM | 16.4 µM | 38 µM | 32.1 µM | 37.4 µM | 14.2 µM
NC(=O)C(C(N)=O)=C(O)C(=O)/C=C(\O)c1ccccc1 | > 100 µM | > 100 µM | > 100 µM | > 100 µM | > 100 µM | > 100 µM | > 100 µM | > 100 µM | > 100 µM | 31.7 µM | > 100 µM | > 100 µM | > 100 µM | > 100 µM | > 100 µM | > 100 µM | 13.9 µM | > 100 µM | > 100 µM | > 100 µM
CCOC(=O)NC(Nc1ccc(S(=O)(=O)Nc2nc(C)cc(C)n2)cc1)(C(=O)OCC)C(F)(F)F (stereo not given) | > 100 µM | > 100 µM | > 100 µM | > 100 µM | > 100 µM | > 100 µM | > 100 µM | > 100 µM | > 100 µM | > 100 µM | > 100 µM | > 100 µM | > 100 µM | > 100 µM | > 100 µM | > 100 µM | 27.4 µM | > 100 µM | > 100 µM | > 100 µM
O=C(O)CCC(NC(=O)OCc1ccccc1)C(=O)NC(Cc1cnc[nH]1)C(=O)O (stereo not drawn) (Cbz-Glu-His-OH; configuration not given here) | > 100 µM | > 100 µM | > 100 µM | > 100 µM | > 100 µM | > 100 µM | > 100 µM | > 100 µM | > 100 µM | > 100 µM | > 100 µM | > 100 µM | > 100 µM | > 100 µM | > 100 µM | > 100 µM | > 100 µM | > 100 µM | > 100 µM | > 100 µM
CCOC1OC(=O)c2cc3ccc4c(c3c(-c3ccc5c(c3)OCO5)c21)OCO4 (stereo not given) | > 100 µM | > 100 µM | 18.6 µM | > 100 µM | > 39.6 µM | > 100 µM | > 100 µM | 3.77 µM | > 100 µM | > 100 µM | 97.9 µM | > 100 µM | 8.14 µM | 20.4 µM | > 29.9 µM | > 100 µM | 5.43 µM | > 77.9 µM | > 100 µM | > 100 µM
Fc1cc(-c2cc(-c3ccccc3)no2)c(Cl)cc1Cl | > 41.6 µM | > 100 µM | > 31.7 µM | > 68.4 µM | > 88.9 µM | > 58.4 µM | > 35.2 µM | > 40.1 µM | > 77.3 µM | 34 µM | 16.6 µM | > 54.2 µM | > 49.4 µM | > 17.2 µM | > 50.3 µM | > 54.4 µM | > 41.8 µM | > 51.7 µM | > 21.7 µM | > 59.3 µM
O=C(Oc1ccccn1)c1cc2cc(CCl)ccc2oc1=O | > 100 µM | 77.3 µM | 69.4 µM | > 100 µM | 59.6 µM | > 100 µM | 31.3 µM | 38.1 µM | 55 µM | > 100 µM | 41.3 µM | 39.2 µM | > 100 µM | > 100 µM | > 100 µM | 56.7 µM | > 100 µM | > 100 µM | 34.7 µM | > 100 µM
